For test [1], the target named is intracellular GCN2 (phosphorylation of the GCN2 substrate eIF2α) (Homo sapiens, UniProt Q9P2K8). Kind of test: GCN2 cellular inhibition assay (AlphaScreen SureFire P-eIF2α Ser51, borrelidin-treated U2OS cells). The class given is cell-based. The note with it: compounds of Formula IV; biomarker assay, phosphorylated eIF2α Ser51 in borrelidin-treated U2OS cells. The gist of the method:
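Phospho-eIF2α (Ser51) in lysates was quantified by AlphaScreen SureFire after a 1 h, 37 °C treatment of U2OS cells with 10 μM borrelidin and compound at 4-fold dilutions starting from 40 μM final. Inhibition expressed in percent against wells stimulated by borrelidin alone.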

The next test addresses GCN2 kinase (Homo sapiens, UniProt Q9P2K8). Kind of test: GCN2 enzyme inhibition assay (Transcreener ADP2 fluorescence polarization). The class given is biochemical. The following applies: Enzyme activity for compounds of Formula IV; Ki(app), 280 μM ATP, 25° C. The procedure, abridged: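 4 nM GCN2 + 200 μM (RS)7 + compound (0–8 μM), 10 min preinc.; start with ATP (280 μM final); 1 h, 25 °C; pH 7.5 Tris/NaCl/MgCl2/DTT; ADP FP readout; IC50, Ki(app) via tight-binding fit.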
(In general: Fluorescence polarisation rises when a labelled molecule tumbles more slowly, as on binding a larger partner.)

GCN2 kinase, sequence (Q9P2K8 whole entry): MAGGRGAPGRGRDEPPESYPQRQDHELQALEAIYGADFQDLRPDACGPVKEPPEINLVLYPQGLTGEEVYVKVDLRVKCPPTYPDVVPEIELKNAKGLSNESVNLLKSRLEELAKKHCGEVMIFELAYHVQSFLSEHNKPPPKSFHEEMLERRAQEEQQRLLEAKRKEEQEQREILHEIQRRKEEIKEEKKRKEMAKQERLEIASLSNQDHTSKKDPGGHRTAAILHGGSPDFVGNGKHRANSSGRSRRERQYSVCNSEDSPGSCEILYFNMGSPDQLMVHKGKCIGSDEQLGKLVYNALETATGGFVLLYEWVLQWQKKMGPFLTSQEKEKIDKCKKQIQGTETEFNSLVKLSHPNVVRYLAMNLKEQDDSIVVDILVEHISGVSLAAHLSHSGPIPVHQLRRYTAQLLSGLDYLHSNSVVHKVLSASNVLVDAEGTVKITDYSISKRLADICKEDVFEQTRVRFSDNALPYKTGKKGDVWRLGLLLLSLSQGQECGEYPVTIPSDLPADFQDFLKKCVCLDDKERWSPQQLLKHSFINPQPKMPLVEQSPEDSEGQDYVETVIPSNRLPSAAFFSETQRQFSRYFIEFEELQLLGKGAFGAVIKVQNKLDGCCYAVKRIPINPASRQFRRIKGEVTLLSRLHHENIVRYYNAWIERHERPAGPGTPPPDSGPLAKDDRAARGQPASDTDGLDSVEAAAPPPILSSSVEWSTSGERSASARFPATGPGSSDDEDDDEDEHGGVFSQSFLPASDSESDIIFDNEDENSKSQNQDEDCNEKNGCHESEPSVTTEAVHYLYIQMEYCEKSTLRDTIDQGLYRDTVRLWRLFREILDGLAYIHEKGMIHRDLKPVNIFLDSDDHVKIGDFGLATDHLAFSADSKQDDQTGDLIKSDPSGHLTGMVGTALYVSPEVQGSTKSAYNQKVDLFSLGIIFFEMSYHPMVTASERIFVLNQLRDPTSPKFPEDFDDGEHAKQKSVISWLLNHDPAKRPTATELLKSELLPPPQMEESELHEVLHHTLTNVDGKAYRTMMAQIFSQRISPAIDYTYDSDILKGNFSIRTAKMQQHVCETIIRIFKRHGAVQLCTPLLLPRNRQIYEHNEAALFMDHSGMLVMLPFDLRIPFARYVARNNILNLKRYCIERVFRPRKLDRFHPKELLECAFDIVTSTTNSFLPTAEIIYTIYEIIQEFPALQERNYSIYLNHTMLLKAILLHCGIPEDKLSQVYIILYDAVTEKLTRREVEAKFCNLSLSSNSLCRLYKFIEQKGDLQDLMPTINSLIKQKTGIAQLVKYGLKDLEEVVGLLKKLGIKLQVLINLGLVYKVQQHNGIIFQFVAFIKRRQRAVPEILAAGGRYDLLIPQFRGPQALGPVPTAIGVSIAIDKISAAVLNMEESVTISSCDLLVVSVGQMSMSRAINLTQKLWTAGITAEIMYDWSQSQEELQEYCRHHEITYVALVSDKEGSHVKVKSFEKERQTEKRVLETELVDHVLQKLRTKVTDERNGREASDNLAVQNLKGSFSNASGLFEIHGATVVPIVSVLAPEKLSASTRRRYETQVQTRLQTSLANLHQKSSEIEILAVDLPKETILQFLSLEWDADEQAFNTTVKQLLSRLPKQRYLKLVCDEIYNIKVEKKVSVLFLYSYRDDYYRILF
intracellular GCN2 (phosphorylation of the GCN2 substrate eIF2α), sequence (Q9P2K8 whole entry): as above

As to `CC(C)c1nc(C2CCCN(c3ccnc(-c4cnc5cnc(Br)cn45)n3)C2)c[nH]1` (stereo not drawn) [IV-384, 6-Bromo-3-(4-(3-(2-isopropyl-1H-imidazol-4-yl)piperidin-1-yl)pyrimidin-2-yl)imidazo[1,2-a]pyrazine], the IC50 (as a rule, the point on the concentration scale where inhibition reaches its midpoint) in test [1] was 500 to 5000 nM. Moreover, the Ki on GCN2 kinase lay in the range of 10 to 100 nM.
For the compound `CC(C)c1nc(C2=CCCN(c3ccnc(-c4cnc5cnc(Br)cn45)n3)C2)c[nH]1` [IV-385, 6-Bromo-3-(4-(5-(2-isopropyl-1H-imidazol-4-yl)-3,6-dihydropyridin-1(2H)-yl)pyrimidin-2-yl)imidazo[1,2-a]pyrazine], the IC50 in test [1] was in the range of 500 to 5000 nM. For the same compound, on GCN2 kinase, the Ki is 10 to 100 nM.
As for `OC1(c2cn[nH]c2)CCCN(c2ccnc(-c3cnc4cnc(C(F)(F)F)cn34)n2)C1` (stereo not drawn) [IV-386, 3-(1H-Pyrazol-4-yl)-1-(2-(6-(trifluoromethyl)imidazo[1,2-a]pyrazin-3-yl)pyrimidin-4-yl)piperidin-3-ol], the concentration for half-maximal inhibition (IC50) in test [1] is 500 to 5000 nM. Besides, the Ki on GCN2 kinase lay in the range of 10 to 100 nM.
The matching figures for `CC1C(c2cn[nH]c2)CCCN1c1ccnc(-c2cnc3cnc(C(F)(F)F)cn23)n1` (stereo not drawn) [IV-388, 3-(4-(2-Methyl-3-(1H-pyrazol-4-yl)piperidin-1-yl)pyrimidin-2-yl)-6-(trifluoromethyl)imidazo[1,2-a]pyrazine]: under 500 nM and under 10 nM.
As to `CC1C(c2c[nH]cn2)CCCN1c1ccnc(-c2cnc3cnc(C(F)(F)F)cn23)n1` (stereo not drawn) [IV-389, 3-(4-(3-(1H-Imidazol-4-yl)-2-methylpiperidin-1-yl)pyrimidin-2-yl)-6-(trifluoromethyl)imidazo[1,2-a]pyrazine], in test [1], the IC50 fell in the range of 500 to 5000 nM. Moreover, at GCN2 kinase, the Ki was under 10 nM.
The matching figures for `COC1CC(c2cn[nH]c2)CN(c2ccnc(-c3cnc4cnc(C(F)(F)F)cn34)n2)C1` (stereo not drawn) [IV-396, 3-(4-(3-Methoxy-5-(1H-pyrazol-4-yl)piperidin-1-yl)pyrimidin-2-yl)-6-(trifluoromethyl)imidazo[1,2-a]pyrazine]: 500 to 5000 nM and under 10 nM.
For `CC1C(c2cn[nH]c2)NCCN1c1ccnc(-c2cnc3cnccn23)n1` (stereo not drawn) [IV-397, 3-(4-(2-Methyl-3-(1H-pyrazol-4-yl)piperazin-1-yl)pyrimidin-2-yl)imidazo[1,2-a]pyrazine], in test [1], the IC50 is over 5000 nM. This compound yielded a Ki at GCN2 kinase of 100 to 1000 nM.
As to `Cc1cn2c(-c3nccc(N4CCNC(c5cn[nH]c5)C4C)n3)cnc2cn1` (stereo not drawn) [IV-398, 6-Methyl-3-(4-(2-methyl-3-(1H-pyrazol-4-yl)piperazin-1-yl)pyrimidin-2-yl)imidazo[1,2-a]pyrazine], in test [1], the IC50 was over 5000 nM. Further, the Ki on GCN2 kinase fell in the range of 10 to 100 nM.
In the same order, the values of `FC(F)(F)c1cn2c(-c3nccc(N4CCCC(c5c[nH]c(Cl)n5)C4)n3)cnc2cn1` (stereo not drawn) [IV-409, 3-(4-(3-(2-Chloro-1H-imidazol-4-yl)piperidin-1-yl)pyrimidin-2-yl)-6-(trifluoromethyl)imidazo[1,2-a]pyrazine] are 500 to 5000 nM and under 10 nM.
The matching figures for `O=C1CN(c2ccnc(-c3cnc4cnc(C(F)(F)F)cn34)n2)CC(c2cn[nH]c2)N1` (stereo not drawn) [IV-410, 6-(1H-Pyrazol-4-yl)-4-(2-(6-(trifluoromethyl)imidazo[1,2-a]pyrazin-3-yl)pyrimidin-4-yl)piperazin-2-one]: over 5000 nM and 10 to 100 nM.
As for `CC1CN(c2ccnc(-c3cnc4cnc(C(F)(F)F)cn34)n2)C(C)C(c2cn[nH]c2)O1` (stereo not drawn) [IV-415, 3,6-Dimethyl-2-(1H-pyrazol-4-yl)-4-(2-(6-(trifluoromethyl)imidazo[1,2-a]pyrazin-3-yl)pyrimidin-4-yl)morpholine], the IC50 in test [1] is under 500 nM. On GCN2 kinase, the Ki is under 10 nM.
As for `CC1CN(c2ccnc(-c3cnc4cnc(C(F)(F)F)cn34)n2)C(C)C(c2cn[nH]c2)O1` (stereo not drawn) [IV-416, 3,6-Dimethyl-2-(1H-pyrazol-4-yl)-4-(2-(6-(trifluoromethyl)imidazo[1,2-a]pyrazin-3-yl)pyrimidin-4-yl)morpholine], in test [1], the IC50 lay within 500 to 5000 nM. In addition, at GCN2 kinase, the Ki was under 10 nM.
On to `CC1C(c2cn[nH]c2)OCCN1c1nccc(-c2cnc3cnc(C(F)(F)F)cn23)n1` (stereo not drawn) [IV-418, 3-Methyl-2-(1H-pyrazol-4-yl)-4-(4-(6-(trifluoromethyl)imidazo[1,2-a]pyrazin-3-yl)pyrimidin-2-yl)morpholine], for which the concentration for half-maximal inhibition (IC50) in test [1] fell in the range of 500 to 5000 nM. The Ki at GCN2 kinase is 10 to 100 nM.
The matching figures for `CC1CN(c2ncc(F)c(-c3cnc4cnc(C(F)(F)F)cn34)n2)C(C)C(c2cn[nH]c2)N1` (stereo not drawn) [IV-421, 3-(2-(2,5-Dimethyl-3-(1H-pyrazol-4-yl)piperazin-1-yl)-5-fluoropyrimidin-4-yl)-6-(trifluoromethyl)imidazo[1,2-a]pyrazine]: 500 to 5000 nM and 10 to 100 nM.
With `CC1CN(c2ncc(F)c(-c3cnc4cnc(C(F)(F)F)cn34)n2)CC(c2cn[nH]c2)N1` (stereo not drawn) [IV-422, 3-(5-Fluoro-2-(3-methyl-5-(1H-pyrazol-4-yl)piperazin-1-yl)pyrimidin-4-yl)-6-(trifluoromethyl)imidazo[1,2-a]pyrazine], in test [1], the IC50 was over 5000 nM. Further, at GCN2 kinase, the Ki fell in the range of 100 to 1000 nM.
`FC(F)(F)c1cn2c(-c3nccc(N4CCCCC4)n3)cnc2cn1` [IV-423, 3-(4-(Piperidin-1-yl)pyrimidin-2-yl)-6-(trifluoromethyl)imidazo[1,2-a]pyrazine]: the IC50 in test [1] is over 5000 nM. This compound also displayed a Ki on GCN2 kinase of 100 to 1000 nM.
In the same order, the values of `CC1CCCN(c2ccnc(-c3cnc4cnc(C(F)(F)F)cn34)n2)C1` (stereo not drawn) [IV-424, 3-(4-(3-Methylpiperidin-1-yl)pyrimidin-2-yl)-6-(trifluoromethyl)imidazo[1,2-a]pyrazine] are over 5000 nM and 100 to 1000 nM.
The compound `NC(=O)C1COCCN(c2ccnc(-c3cnc4cnc(C(F)(F)F)cn34)n2)C1` (stereo not drawn) [IV-425, 4-(2-(6-(Trifluoromethyl)imidazo[1,2-a]pyrazin-3-yl)pyrimidin-4-yl)-1,4-oxazepane-6-carboxamide] registered an IC50 in test [1] of over 5000 nM. Besides, on GCN2 kinase, the Ki lay within 100 to 1000 nM.
In test [1], `FC(F)(F)c1cn2c(-c3nccc(N4CCOCC4)n3)cnc2cn1` [IV-426, 4-(2-(6-(Trifluoromethyl)imidazo[1,2-a]pyrazin-3-yl)pyrimidin-4-yl)morpholine] yielded an IC50 of over 5000 nM. Further, on GCN2 kinase, the Ki fell in the range of 100 to 1000 nM.
The matching figures for `FC(F)(F)c1cn2c(-c3nccc(N4CCCOCC4)n3)cnc2cn1` [IV-427, 4-(2-(6-(Trifluoromethyl)imidazo[1,2-a]pyrazin-3-yl)pyrimidin-4-yl)-1,4-oxazepane]: over 5000 nM and 100 to 1000 nM.
Turning to `OCCC1CCN(c2ccnc(-c3cnc4cnc(C(F)(F)F)cn34)n2)C1` (stereo not drawn) [IV-435, 2-(1-(2-(6-(Trifluoromethyl)imidazo[1,2-a]pyrazin-3-yl)pyrimidin-4-yl)pyrrolidin-3-yl)ethan-1-ol], the IC50 in test [1] fell in the range of 500 to 5000 nM. At GCN2 kinase, the Ki was in the range of 100 to 1000 nM.
`OCC1CCCN1c1ccnc(-c2cnc3cnc(C(F)(F)F)cn23)n1` (stereo not drawn) [IV-436, (1-(2-(6-(Trifluoromethyl)imidazo[1,2-a]pyrazin-3-yl)pyrimidin-4-yl)pyrrolidin-2-yl)methanol]: the IC50 in test [1] was over 5000 nM. For the same compound, the Ki on GCN2 kinase lay within 100 to 1000 nM.
The matching figures for `OC1CCCN(c2ccnc(-c3cnc4cnc(C(F)(F)F)cn34)n2)C1` (stereo not drawn) [IV-437, 1-(2-(6-(Trifluoromethyl)imidazo[1,2-a]pyrazin-3-yl)pyrimidin-4-yl)piperidin-3-ol]: over 5000 nM and 100 to 1000 nM.
`OCC1CCCN(c2ccnc(-c3cnc4cnc(C(F)(F)F)cn34)n2)C1` (stereo not drawn) [IV-439, (1-(2-(6-(Trifluoromethyl)imidazo[1,2-a]pyrazin-3-yl)pyrimidin-4-yl)piperidin-3-yl)methanol] returned an IC50 in test [1] of over 5000 nM. Besides, the Ki on GCN2 kinase fell in the range of 100 to 1000 nM.
The compound `OCCC1CCN(c2ccnc(-c3cnc4cnc(C(F)(F)F)cn34)n2)CC1` [IV-442, 2-(1-(2-(6-(Trifluoromethyl)imidazo[1,2-a]pyrazin-3-yl)pyrimidin-4-yl)piperidin-4-yl)ethan-1-ol] displayed a half-inhibitory concentration (IC50) in test [1] of over 5000 nM. In addition, the Ki on GCN2 kinase was 100 to 1000 nM.
Take `OCC1CCN(c2ccnc(-c3cnc4cnc(C(F)(F)F)cn34)n2)CC1` [IV-443, (1-(2-(6-(Trifluoromethyl)imidazo[1,2-a]pyrazin-3-yl)pyrimidin-4-yl)piperidin-4-yl)methanol]: the IC50 in test [1] was over 5000 nM. This compound also registered a Ki at GCN2 kinase of 100 to 1000 nM.
With `OCCC1CCCN(c2ccnc(-c3cnc4cnc(C(F)(F)F)cn34)n2)C1` (stereo not drawn) [IV-444, 2-(1-(2-(6-(Trifluoromethyl)imidazo[1,2-a]pyrazin-3-yl)pyrimidin-4-yl)piperidin-3-yl)ethan-1-ol], the IC50 in test [1] was over 5000 nM. The same compound displayed a Ki on GCN2 kinase of 100 to 1000 nM.
Turning to `OC1CCCN(c2ccnc(-c3cnc4cnc(C(F)(F)F)cn34)n2)CC1` (stereo not drawn) [IV-447, 1-(2-(6-(Trifluoromethyl)imidazo[1,2-a]pyrazin-3-yl)pyrimidin-4-yl)azepan-4-ol], the IC50 in test [1] is over 5000 nM. The compound further had a Ki on GCN2 kinase of 100 to 1000 nM.
For the compound `FC(F)(F)c1cn2c(-c3nccc(-c4cnn(C5CCOC5)c4)n3)cnc2cn1` (stereo not drawn) [IV-449, 3-(4-(1-(Tetrahydrofuran-3-yl)-1H-pyrazol-4-yl)pyrimidin-2-yl)-6-(trifluoromethyl)imidazo[1,2-a]pyrazine], in test [1], the IC50 was over 5000 nM. The Ki at GCN2 kinase was in the range of 100 to 1000 nM.
Consider `Cc1[nH]ncc1C1CCCN(c2ccnc(-c3cnc4cnc(C(F)(F)F)cn34)n2)C1` (stereo not drawn) [IV-452, 3-(4-(3-(5-Methyl-1H-pyrazol-4-yl)piperidin-1-yl)pyrimidin-2-yl)-6-(trifluoromethyl)imidazo[1,2-a]pyrazine], for which the IC50 in test [1] lay within 500 to 5000 nM. The Ki on GCN2 kinase is under 10 nM.

These data come from patent publication US10988477B2 (Merck Patent GmbH, priority 2018, dated 2021).
